This is an account of results in patent publication US10479780B2, “Aminopyrazole derivatives” (Chugai Seiyaku Kabushiki Kaisha, priority 2015, dated 2019).

Read-outs that look alike come from different tables or passages of the source.

Holding throughout (assay type): biochemical
For one assay, the target named is T1, human Yes1 enzyme (Homo sapiens, UniProt P07947).
T1 construct: made in house
The experiment in a line: Yes1 enzyme inhibitory activity (time-resolved fluorometry, biotinylated peptide phosphorylation). Conditions: read-out: YES_IC50. The method, boiled down:
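Inhibition was expressed against a compound-free control to give IC50, using TR-FRET read-out (Eu-cryptate anti-pTyr antibody, streptavidin-XL665).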

Another assay has as its target T2, human Lck enzyme (Homo sapiens, UniProt P06239).
T2 construct: purchased Carna Biosciences, Inc. 08-170
The experiment in a line: Lck enzyme inhibitory activity (time-resolved fluorometry, biotinylated peptide phosphorylation). The settings on record: read-out: LCK_IC50. The method, boiled down:
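Readout pairs a europium cryptate-labelled anti-phosphotyrosine antibody with XL665-streptavidin, measured by time-resolved fluorescence. IC50 derived from percent inhibition against untreated controls.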

The target of a further assay is T3, human Src enzyme (Homo sapiens, UniProt P12931).
T3 construct: purchased Carna Biosciences, Inc. 08-173
Briefly: Src enzyme inhibitory activity (time-resolved fluorometry, biotinylated peptide phosphorylation). Conditions: read-out: SRC_IC50. The procedure, abridged:
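Compounds were tested for blocking tyrosine phosphorylation of a biotinylated peptide substrate by recombinant human Src. Phosphorylated product was quantified by time-resolved fluorometry using europium cryptate and XL665 conjugates, and IC50 was calculated against the compound-free control.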

[1] abbreviates: biotinylated peptide phosphorylation.

T3 sequence (P12931 whole entry): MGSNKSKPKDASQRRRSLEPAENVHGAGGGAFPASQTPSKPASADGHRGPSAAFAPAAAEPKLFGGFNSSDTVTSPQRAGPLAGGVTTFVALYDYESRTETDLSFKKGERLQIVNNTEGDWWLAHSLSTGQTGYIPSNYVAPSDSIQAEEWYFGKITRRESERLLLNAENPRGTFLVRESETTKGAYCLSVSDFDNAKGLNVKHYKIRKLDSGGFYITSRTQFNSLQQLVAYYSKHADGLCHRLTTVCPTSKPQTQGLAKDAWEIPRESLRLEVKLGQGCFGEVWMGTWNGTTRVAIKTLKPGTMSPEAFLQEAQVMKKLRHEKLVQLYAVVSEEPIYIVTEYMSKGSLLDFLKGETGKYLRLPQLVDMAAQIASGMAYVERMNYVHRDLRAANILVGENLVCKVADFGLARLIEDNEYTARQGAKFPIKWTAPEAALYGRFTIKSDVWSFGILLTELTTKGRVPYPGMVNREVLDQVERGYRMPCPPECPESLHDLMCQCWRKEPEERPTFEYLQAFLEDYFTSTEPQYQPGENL
T2 sequence (P06239 whole entry): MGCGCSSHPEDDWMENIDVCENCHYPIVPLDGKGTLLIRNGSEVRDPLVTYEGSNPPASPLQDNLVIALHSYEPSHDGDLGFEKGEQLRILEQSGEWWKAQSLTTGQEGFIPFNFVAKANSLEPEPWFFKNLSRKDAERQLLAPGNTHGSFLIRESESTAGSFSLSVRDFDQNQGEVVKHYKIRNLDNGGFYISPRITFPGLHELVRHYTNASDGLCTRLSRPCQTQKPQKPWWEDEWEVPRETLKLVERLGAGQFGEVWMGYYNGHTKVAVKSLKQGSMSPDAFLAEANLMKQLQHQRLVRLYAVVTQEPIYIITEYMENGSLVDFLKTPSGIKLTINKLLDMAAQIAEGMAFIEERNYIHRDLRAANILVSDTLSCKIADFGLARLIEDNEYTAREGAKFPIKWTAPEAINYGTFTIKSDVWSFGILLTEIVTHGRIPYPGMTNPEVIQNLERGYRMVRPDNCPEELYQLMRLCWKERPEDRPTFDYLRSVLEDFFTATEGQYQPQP
T1 sequence (P07947 whole entry): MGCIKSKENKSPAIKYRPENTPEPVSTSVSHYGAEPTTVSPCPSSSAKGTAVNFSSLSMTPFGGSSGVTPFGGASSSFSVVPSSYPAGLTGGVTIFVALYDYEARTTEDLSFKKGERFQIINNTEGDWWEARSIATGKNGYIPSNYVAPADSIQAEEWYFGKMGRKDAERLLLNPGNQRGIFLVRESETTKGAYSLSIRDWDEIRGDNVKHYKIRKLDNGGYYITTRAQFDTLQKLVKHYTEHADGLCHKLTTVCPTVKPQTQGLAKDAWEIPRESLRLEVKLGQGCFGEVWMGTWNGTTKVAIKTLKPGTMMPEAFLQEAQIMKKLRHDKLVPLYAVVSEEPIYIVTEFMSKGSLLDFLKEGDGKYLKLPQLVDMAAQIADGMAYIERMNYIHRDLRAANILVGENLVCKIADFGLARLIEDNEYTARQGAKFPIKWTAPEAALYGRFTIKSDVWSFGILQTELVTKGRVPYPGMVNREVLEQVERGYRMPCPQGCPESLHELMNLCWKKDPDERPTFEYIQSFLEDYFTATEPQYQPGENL

Consider `Cc1cc(Oc2ccccc2F)ncc1-n1ncc(C(=O)c2cc3cc(OC(F)F)c(N4CCCS4(=O)=O)cc3[nH]2)c1N` [Example 4-25-004, [5-amino-1-[6-(2-fluorophenoxy)-4-methylpyridin-3-yl]pyrazol-4-yl]-[5-(difluoromethoxy)-6-(1,1-dioxo-1,2-thiazolidin-2-yl)-1H-indol-2-yl]methanone], for which the IC50 worked out at 1 nM at human Yes1 enzyme (setting [1]), 8.7 nM on human Lck enzyme (setting [1]) and 48 nM at human Src enzyme (setting [1]).
Consider `Cc1cc(Oc2c(F)cccc2F)ncc1-n1ncc(C(=O)c2cc3cc(OC4CCN(C5CCC5)CC4)c(Br)cc3[nH]2)c1N` [Example 5-1-221, [5-amino-1-[6-(2,6-difluorophenoxy)-4-methylpyridin-3-yl]pyrazol-4-yl]-[6-bromo-5-(1-cyclobutylpiperidin-4-yl)oxy-1H-indol-2-yl] methanone], for which the values for the IC50 on human Yes1 enzyme, at human Lck enzyme and at human Src enzyme were 0.66 nM, 7.5 nM and 6.4 nM, respectively.
The corresponding values for `Cc1cc(Oc2cccc(Cl)c2)nc(C)c1-n1ncc(C(=O)c2cc3cc(F)c(NS(C)(=O)=O)cc3[nH]2)c1N` [Example 5-1-052, N-[2-[5-amino-1-[6-(3-chlorophenoxy)-2,4-dimethylpyridin-3-yl]pyrazole-4-carbonyl]-5-fluoro-1H-indol-6-yl]methanesulfonamide] are 120 nM, 250 nM and 810 nM.
`Cc1cc(Oc2c(F)cccc2F)ncc1-n1ncc(C(=O)c2cc3cc(F)c(NS(=O)(=O)c4cccc(Cl)c4)cc3[nH]2)c1N` [Example 5-1-559, N-[2-[5-amino-1-[6-(2,6-difluorophenoxy)-4-methylpyridin-3-yl]pyrazole-4-carbonyl]-5-fluoro-1H-indol-6-yl]-3-chlorobenzenesulfonamide]: the IC50 on human Yes1 enzyme (setting [1]) worked out at 17 nM; on human Lck enzyme (setting [1]), 810 nM; at human Src enzyme (setting [1]), 2400 nM.
Take `Cc1cc(Oc2ccccc2F)ccc1-n1ncc(C(=O)c2cc3cc(OCC(F)F)c(C4CCN(S(C)(=O)=O)CC4)cc3[nH]2)c1N` [Example 4-17-015, [5-amino-1-[4-(2-fluorophenoxy)-2-methylphenyl]pyrazol-4-yl]-[5-(2,2-difluoroethoxy)-6-(1-methylsulfonylpiperidin-4-yl)-1H-indol-2-yl]methanone]: the figures for the IC50 on human Yes1 enzyme (setting [1]), at human Lck enzyme (setting [1]) and on human Src enzyme (setting [1]) were 5 nM, 14 nM and 14 nM, respectively.
For `Cc1cc2cc(C(=O)c3cnn(-c4cnc(Oc5ccccc5Cl)cc4C)c3N)[nH]c2cc1NS(=O)(=O)CCCF` [Example 4-2-074, N-[2-[5-amino-1-[6-(2-chlorophenoxy)-4-methylpyridin-3-yl]pyrazole-4-carbonyl]-5-methyl-1H-indol-6-yl]-3-fluoropropane-1-sulfonamide], the IC50 at human Yes1 enzyme (setting [1]) came to 2.7 nM; on human Lck enzyme (setting [1]), 27 nM; on human Src enzyme (setting [1]), 71 nM.
The like results for `Cc1cc(Oc2ccccc2F)ccc1-n1ncc(C(=O)c2cc3cc(F)c(NS(=O)(=O)NC4CCOCC4)cc3[nH]2)c1N` [Example 4-5-003, [5-amino-1-[4-(2-fluorophenoxy)-2-methylphenyl]pyrazol-4-yl]-[5-fluoro-6-(oxan-4-ylsulfamoylamino)-1H-indol-2-yl]methanone] were, in that order, 0.67 nM, 11 nM and 29 nM.
In the case of `CC(C)N1CCC(c2cc3cc(C(=O)c4cnn(-c5ccc(Oc6cccc(F)c6F)cc5)c4N)[nH]c3cc2F)CC1` [Example 4-2-004, [5-amino-1-[4-(2,3-difluorophenoxy)phenyl]pyrazol-4-yl]-[6-fluoro-5-(1-propan-2-ylpiperidin-4-yl)-1H-indol-2-yl]methanone], the results for the IC50 on human Yes1 enzyme (setting [1]), on human Lck enzyme (setting [1]) and at human Src enzyme (setting [1]) were 0.93 nM, 2.3 nM and 7.5 nM, respectively.
As to `Cc1cc(Oc2c(F)cccc2F)ncc1-n1ncc(C(=O)c2cc3cc(OCC(F)F)c(N4C(=O)NC5(CCN(C6COC6)C5)C4=O)cc3[nH]2)c1N` (stereo not drawn) [Example 5-1-352, 3-[2-[5-amino-1-[6-(2,6-difluorophenoxy)-4-methylpyridin-3-yl]pyrazole-4-carbonyl]-5-(2,2-difluoroethoxy)-1H-indol-6-yl]-7-(oxetan-3-yl)-1,3,7-triazaspiro[4.4]nonane-2,4-dione], the results for the IC50 on human Yes1 enzyme, on human Lck enzyme and at human Src enzyme were 11 nM, 17 nM and 160 nM, respectively.
Consider `CC(C)N1CCC(c2cc3cc(C(=O)c4cnn(-c5ccc(Oc6cccc(F)c6)cc5)c4N)[nH]c3cc2F)CC1` [Example 4-2-006, [5-amino-1-[4-(3-fluorophenoxy)phenyl]pyrazol-4-yl]-[6-fluoro-5-(1-propan-2-ylpiperidin-4-yl)-1H-indol-2-yl]methanone], for which the figures for the IC50 at human Yes1 enzyme (setting [1]), on human Lck enzyme (setting [1]) and at human Src enzyme (setting [1]) were 1.3 nM, 3.3 nM and 12 nM, respectively.
In the case of `Cc1cc(Oc2c(F)cccc2F)ncc1-n1ncc(C(=O)c2cc3cc(OC(F)F)c(NC4COC4)cc3[nH]2)c1N` [Example 4-23-014, [5-amino-1-[6-(2,6-difluorophenoxy)-4-methylpyridin-3-yl]pyrazol-4-yl]-[5-(difluoromethoxy)-6-(oxetan-3-ylamino)-1H-indol-2-yl]methanone], the figures for the IC50 on human Yes1 enzyme (setting [1]), at human Lck enzyme (setting [1]) and on human Src enzyme (setting [1]) were 3.5 nM, 9.2 nM and 22 nM, respectively.
The like results for `Cc1cc2cc(C(=O)c3cnn(-c4cnc(Oc5ccccc5F)cc4C)c3N)[nH]c2cc1N1CCCS1(=O)=O` [Example 4-16-001, {5-amino-1-[6-(2-fluorophenoxy)-4-methylpyridin-3-yl]pyrazol-4-yl}-[6-(1,1-dioxo-1,2-thiazolidin-2-yl)-5-methyl-1H-indol-2-yl]methanone] were, in that order, 0.62 nM, 4.5 nM and 16 nM.
Regarding `Cc1cnc(F)c(S(=O)(=O)Nc2cc3[nH]c(C(=O)c4cnn(-c5ccc(Oc6ccccc6F)cc5C)c4N)cc3cc2F)c1` [Example 5-1-522, N-[2-[5-amino-1-[4-(2-fluorophenoxy)-2-methylphenyl]pyrazole-4-carbonyl]-5-fluoro-1H-indol-6-yl]-2-fluoro-5-methylpyridine-3-sulfonamide], the IC50 at human Yes1 enzyme (setting [1]) was found to be 1.8 nM; on human Lck enzyme (setting [1]) it was 120 nM; at human Src enzyme (setting [1]), 250 nM.
The like results for `Cc1cc2cc(C(=O)c3cnn(-c4ccc(Oc5ccccc5F)cc4C)c3N)[nH]c2cc1N1C(=O)NC2(COC2)C1=O` [Example 5-1-410, 7-[2-[5-amino-1-[4-(2-fluorophenoxy)-2-methylphenyl]pyrazole-4-carbonyl]-5-methyl-1H-indol-6-yl]-2-oxa-5,7-diazaspiro[3.4] octane-6,8-dione] were, in that order, 0.56 nM, 2.9 nM and 22 nM.
The corresponding values for `Cc1cc2cc(C(=O)c3cnn(-c4cnc(Oc5c(F)cccc5F)cc4C)c3N)[nH]c2cc1N1CCCS1(=O)=O` [Example 4-2-116, [5-amino-1-[6-(2,6-difluorophenoxy)-4-methylpyridin-3-yl]pyrazol-4-yl]-[6-(1,1-dioxo-1,2-thiazolidin-2-yl)-5-methyl-1H-indol-2-yl]methanone] are 1.5 nM, 9.3 nM and 43 nM.
For `Cc1cc(-n2ncc(C(=O)c3cc4cc(OC(F)F)c(N5CCOC5=O)cc4[nH]3)c2N)ccc1Oc1ccccc1F` [Example 5-1-177, 3-[2-[5-amino-1-[4-(2-fluorophenoxy)-3-methylphenyl]pyrazole-4-carbonyl]-5-(difluoromethoxy)-1H-indol-6-yl]-1,3-oxazolidin-2-one], the IC50 at human Yes1 enzyme was found to be 2.4 nM; on human Lck enzyme, 82 nM; at human Src enzyme, 340 nM.
Take `Cc1cc2cc(C(=O)c3cnn(-c4ccc(Oc5cccc(F)c5F)cc4C)c3N)[nH]c2cc1NS(=O)(=O)N1CCOCC1` [Example 4-2-106, N-[2-[5-amino-1-[4-(2,3-difluorophenoxy)-2-methylphenyl]pyrazole-4-carbonyl]-5-methyl-1H-indol-6-yl]morpholine-4-sulfonamide]: the IC50 is 1.4 nM on human Yes1 enzyme (setting [1]), 51 nM on human Lck enzyme (setting [1]) and 180 nM on human Src enzyme (setting [1]).
As for `Cc1cc2cc(C(=O)c3cnn(-c4cnc(Oc5ccccc5F)cc4C)c3N)[nH]c2cc1C1CCN(S(=O)(=O)C2CC2)CC1` [Example 5-1-123, [5-amino-1-[6-(2-fluorophenoxy)-4-methylpyridin-3-yl]pyrazol-4-yl]-[6-(1-cyclopropylsulfonylpiperidin-4-yl)-5-methyl-1H-indol-2-yl]methanone], the figures for the IC50 on human Yes1 enzyme, at human Lck enzyme and at human Src enzyme were 2 nM, 33 nM and 91 nM, respectively.
On to `Cc1cc2cc(C(=O)c3cnn(-c4cnc(Oc5ccccc5F)cc4C)c3N)[nH]c2cc1NS(=O)(=O)c1cc(Cl)ccn1` [Example 5-1-509, N-[2-[5-amino-1-[6-(2-fluorophenoxy)-4-methylpyridin-3-yl]pyrazole-4-carbonyl]-5-methyl-1H-indol-6-yl]-4-chloropyridine-2-sulfonamide], for which the IC50 on human Yes1 enzyme (setting [1]) was 3.7 nM; on human Lck enzyme (setting [1]), 130 nM; at human Src enzyme (setting [1]) it was 840 nM.
For the molecule `Cc1cc2cc(C(=O)c3cnn(-c4c(C)cc(Oc5cccc(F)c5F)cc4F)c3N)[nH]c2cc1NS(=O)(=O)N1CCOCC1` [Example 5-1-066, N-[2-[5-amino-1-[4-(2,3-difluorophenoxy)-2-fluoro-6-methylphenyl]pyrazole-4-carbonyl]-5-methyl-1H-indol-6-yl]morpholine-4-sulfonamide], the values for the IC50 on human Yes1 enzyme, on human Lck enzyme and at human Src enzyme were 2.7 nM, 77 nM and 210 nM, respectively.
